Reference: PMC6348381, “Discovery of an MLLT1/3 YEATS Domain Chemical Probe” (Angewandte Chemie (International Ed. in English), 2018)
Substitutions are numbered along the chain they refer to.

Key:
Format in all cases: binding
[1] = target: T1, TAF1(1) (Homo sapiens, UniProt P21675); assay: Thermal shift assay, TAF1(1)
T1 construct: TAF1(1); purchased in-house (SGC bromodomain thermal shift / AlphaScreen panel)
T1 sequence (P21675 1397-1505 limits assumed): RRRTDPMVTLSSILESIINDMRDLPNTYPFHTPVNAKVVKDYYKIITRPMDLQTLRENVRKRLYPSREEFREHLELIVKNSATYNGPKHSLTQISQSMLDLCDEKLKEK
Protocol: (§1) II.VII Thermal Shift Assay[6]
(§2) Thermal melting experiments were carried out using an Mx3005p Real Time PCR machine (Stratagene). Proteins were buffered in 10 mM HEPES pH 7.5, 500 mM NaCl and assayed in a 96-well plate at a final concentration of 2 μM in 20 μL volume. Compounds were added at a final concentration of 50 μM. SYPRO Orange (Molecular Probes) was added as a fluorescence probe at a dilution of 1:1000. Excitation and emission filters for the SYPRO-Orange dye were set to 465 nm and 590 nm, respectively. The temperature was raised with a step of 3 °C per minute from 25 °C to 96 °C and fluorescence readings were taken at each interval. The unfolding curves were fitted using the Boltzmann equation to determine the middle point of the transition.

[2] = target: T2, BRPF1A (Homo sapiens, UniProt P55201); assay: Thermal shift assay, BRPF1A
T2 construct: purchased in-house (SGC bromodomain thermal shift / AlphaScreen panel)
T2 sequence (P55201 1-1220 isoform P55201-2): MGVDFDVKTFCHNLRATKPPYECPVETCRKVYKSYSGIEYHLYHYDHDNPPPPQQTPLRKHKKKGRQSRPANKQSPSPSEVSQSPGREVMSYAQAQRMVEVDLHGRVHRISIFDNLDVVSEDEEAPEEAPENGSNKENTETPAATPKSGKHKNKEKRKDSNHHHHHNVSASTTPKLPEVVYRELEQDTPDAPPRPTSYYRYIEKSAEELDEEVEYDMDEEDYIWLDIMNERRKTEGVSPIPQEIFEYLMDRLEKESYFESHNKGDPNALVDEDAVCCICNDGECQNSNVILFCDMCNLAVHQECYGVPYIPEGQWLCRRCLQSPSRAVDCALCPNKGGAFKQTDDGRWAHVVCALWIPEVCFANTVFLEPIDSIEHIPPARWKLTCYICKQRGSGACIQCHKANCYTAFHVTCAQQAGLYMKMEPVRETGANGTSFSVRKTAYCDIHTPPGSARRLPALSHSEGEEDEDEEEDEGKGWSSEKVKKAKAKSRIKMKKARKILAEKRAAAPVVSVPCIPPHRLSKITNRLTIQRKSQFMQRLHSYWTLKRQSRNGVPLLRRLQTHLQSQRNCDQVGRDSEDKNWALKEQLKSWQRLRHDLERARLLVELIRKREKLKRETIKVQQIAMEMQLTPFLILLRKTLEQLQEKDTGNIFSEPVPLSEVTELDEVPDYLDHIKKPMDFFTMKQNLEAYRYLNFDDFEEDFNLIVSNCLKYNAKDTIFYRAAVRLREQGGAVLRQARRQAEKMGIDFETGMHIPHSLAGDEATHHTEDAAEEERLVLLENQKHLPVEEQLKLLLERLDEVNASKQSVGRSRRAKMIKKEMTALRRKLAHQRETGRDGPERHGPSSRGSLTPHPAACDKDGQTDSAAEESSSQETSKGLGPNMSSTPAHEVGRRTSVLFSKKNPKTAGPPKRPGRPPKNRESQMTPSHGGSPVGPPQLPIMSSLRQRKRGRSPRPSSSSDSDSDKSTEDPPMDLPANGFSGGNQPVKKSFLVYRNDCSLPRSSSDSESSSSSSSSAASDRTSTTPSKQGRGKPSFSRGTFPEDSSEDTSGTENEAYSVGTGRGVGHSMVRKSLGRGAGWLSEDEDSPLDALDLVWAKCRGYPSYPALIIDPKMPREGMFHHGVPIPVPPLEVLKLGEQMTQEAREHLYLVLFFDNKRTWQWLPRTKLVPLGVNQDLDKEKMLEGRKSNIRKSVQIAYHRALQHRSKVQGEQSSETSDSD
Protocol: as §1, §2

[3] = target: T3, TAF1L(1) (Homo sapiens, UniProt Q8IZX4); assay: Thermal shift assay, TAF1L(1)
T3 construct: Bromosporine with recombinant human bromodomain proteins; made in house
T3 sequence (Q8IZX4 1395-1503 limits assumed): T1 sequence (P21675 1397-1505 limits assumed) with Y28H, R62C
Protocol: as §1, §2

[4] = target: T4, BRPF3 (Homo sapiens, UniProt Q9ULD4); assay: Thermal shift assay, BRPF3
T4 construct: purchased in-house (SGC bromodomain thermal shift / AlphaScreen panel)
T4 sequence (Q9ULD4 1-1205): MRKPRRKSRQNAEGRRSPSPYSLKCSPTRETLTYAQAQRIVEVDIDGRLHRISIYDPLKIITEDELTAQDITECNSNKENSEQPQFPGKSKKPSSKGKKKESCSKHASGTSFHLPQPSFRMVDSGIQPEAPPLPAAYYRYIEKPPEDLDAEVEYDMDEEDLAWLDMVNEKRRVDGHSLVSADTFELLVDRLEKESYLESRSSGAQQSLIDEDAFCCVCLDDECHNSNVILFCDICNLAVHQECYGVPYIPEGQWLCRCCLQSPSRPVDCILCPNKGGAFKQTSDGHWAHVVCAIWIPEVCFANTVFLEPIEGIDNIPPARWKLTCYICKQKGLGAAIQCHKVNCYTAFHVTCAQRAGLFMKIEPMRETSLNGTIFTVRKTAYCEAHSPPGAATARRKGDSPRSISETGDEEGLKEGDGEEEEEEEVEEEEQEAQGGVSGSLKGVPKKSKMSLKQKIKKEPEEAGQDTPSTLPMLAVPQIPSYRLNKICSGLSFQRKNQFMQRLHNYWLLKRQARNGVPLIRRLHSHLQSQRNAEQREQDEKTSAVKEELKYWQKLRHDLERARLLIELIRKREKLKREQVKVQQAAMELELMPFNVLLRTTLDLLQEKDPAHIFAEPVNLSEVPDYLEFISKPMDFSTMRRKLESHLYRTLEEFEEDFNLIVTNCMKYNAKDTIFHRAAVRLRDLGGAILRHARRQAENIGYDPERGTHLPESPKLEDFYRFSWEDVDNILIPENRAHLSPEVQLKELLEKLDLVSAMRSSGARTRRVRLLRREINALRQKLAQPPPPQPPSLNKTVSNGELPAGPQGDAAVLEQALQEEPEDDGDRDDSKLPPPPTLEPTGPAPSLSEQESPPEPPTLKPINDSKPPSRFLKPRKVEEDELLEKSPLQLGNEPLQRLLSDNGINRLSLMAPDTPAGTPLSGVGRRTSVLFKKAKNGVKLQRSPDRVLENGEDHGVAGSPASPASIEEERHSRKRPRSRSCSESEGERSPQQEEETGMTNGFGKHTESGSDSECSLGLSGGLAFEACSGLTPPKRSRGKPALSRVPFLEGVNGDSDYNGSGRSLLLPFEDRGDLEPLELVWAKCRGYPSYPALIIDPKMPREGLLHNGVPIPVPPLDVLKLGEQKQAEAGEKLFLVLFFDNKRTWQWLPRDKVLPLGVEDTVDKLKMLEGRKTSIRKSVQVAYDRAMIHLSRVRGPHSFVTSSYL
Protocol: as §1, §2

**Q.** For `CCOC(=O)Nc1cc(-c2ccc(C)c(NS(C)(=O)=O)c2)nn2c(C)nnc12` [Bromosporine, reference compound], which “Thermal stabilisation, TAF1(1)” value ([1]; 10 µM compound concentration) is on record?
**A.** 0.805

**Q.** What about the “Thermal stabilisation, BRPF1A” value ([2]; 10 µM compound concentration) of the same molecule?
**A.** 0.145

**Q.** What about the “Thermal stabilisation, TAF1L(1)” value ([3]; 10 µM compound concentration) of the same molecule?
**A.** 0.575

**Q.** What about the “Thermal stabilisation, BRPF3” value ([4]; 10 µM compound concentration) of the same molecule?
**A.** 1

**Q.** What does the source list for `C[C@H]1CCCN1Cc1nc2cc(NC(=O)c3ccc4c(cnn4C)c3)ccc2[nH]1` [Compound 92]?
**A.** Thermal stabilisation, TAF1(1) ([1]; 50 μM compound): -0.15; Thermal stabilisation, BRPF1A ([2]; 50 μM compound): -1.305; Thermal stabilisation, TAF1L(1) ([3]; 50 μM compound): -0.215; Thermal stabilisation, BRPF3 ([4]; 50 μM compound): -0.245

**Q.** What does the source list for `COC(=O)c1ccc(C(=O)Nc2ccc3[nH]c(CN4CCCCC4)nc3c2)cc1` [Compound 1]?
**A.** Thermal stabilisation, TAF1(1) ([1]; 50 μM compound): 0.005; Thermal stabilisation, BRPF1A ([2]; 50 μM compound): -1.045; Thermal stabilisation, TAF1L(1) ([3]; 50 μM compound): 0.39; Thermal stabilisation, BRPF3 ([4]; 50 μM compound): 1.015
